Reference: patent US20240218022A1, “ANTI-VISTA MACROCYCLIC PEPTIDES AND COMPOSITIONS” (BRISTOL-MYERS SQUIBB COMPANY, priority 2022, published 2024)
Positions of bridges follow the written chain, without caps; N, C: chain ends. Non-standard residues stand in square brackets, D forms with d. Residues, ends and D or L forms follow the SMILES beside them. 2Nal = N[C@@H](Cc1ccc2ccccc2c1)C(=O)O; Tic = O=C(O)[C@@H]1Cc2ccccc2CN1; Cit = NC(=O)NCCC[C@H](N)C(=O)O; Ahp(2) = CCCCC[C@H](N)C(=O)O; NMeNle = CCCC[C@H](NC)C(=O)O; NHexGly = CCCCCCNCC(=O)O; Nle = CCCC[C@H](N)C(=O)O

Target: T1, mouse VISTA (mVISTA) (Mus musculus, UniProt Q9D659)
T1 construct: expressed in transfected cells; host or cells: Human embryonic kidney 293T cells
T1 sequence (Q9D659 33-308): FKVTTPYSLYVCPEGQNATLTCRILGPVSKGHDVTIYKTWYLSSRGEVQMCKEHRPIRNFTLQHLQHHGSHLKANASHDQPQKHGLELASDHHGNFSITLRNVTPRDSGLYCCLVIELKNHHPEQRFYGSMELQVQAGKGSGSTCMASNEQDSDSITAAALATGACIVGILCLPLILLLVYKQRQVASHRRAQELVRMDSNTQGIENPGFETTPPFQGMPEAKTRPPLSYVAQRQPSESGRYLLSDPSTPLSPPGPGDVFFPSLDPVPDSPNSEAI
Test: Cell-Based Binding High-Content Assay For mVISTA (HC CBA mVISTA)
Settings: cell-based binding high-content assay, mVISTA; the 16th table; read-out: HC CBA mVISTA IC50
Outline: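 This high-content binding assay uses HEK293T cells expressing murine VISTA, measuring displacement of 2 nM biotinylated peptide by fluorescent streptavidin imaging. IC50 values come from four-parameter logistic fitting.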

Row | Compound | IC50 [nM]
1 | CCCCCCN1CC(=O)N[C@@H](Cc2ccc(O)cc2)C(=O)N[C@@H](CC(C)C)C(=O)NCC(=O)N[C@@H](CCCNC(=N)N)C(=O)N2Cc3ccccc3C[C@H]2C(=O)N[C@@H](CCCCC)C(=O)N2CCC[C@H]2C(=O)N[C@@H](C(C)C)C(=O)N[C@@H](CO)C(=O)N[C@H](C(=O)NCC(=O)O)CSCC(=O)N[C@@H](Cc2ccc3ccccc3c2)C(=O)N[C@@H](Cc2ccc(O)cc2)C(=O)N[C@@H](CC(=O)O)C1=O [Ex 1290] ({CH2CO}-[2Nal]YD[NHexGly]YLGR[Tic][Ahp(2)]PVSCG-OH; thioether N-14) | 11.5
2 | CCCCCCN1CC(=O)N[C@@H](Cc2ccc(O)cc2)C(=O)N[C@@H](CC(C)C)C(=O)NCC(=O)N[C@@H](CCCNC(=N)N)C(=O)N(C)[C@@H](CCCC)C(=O)N[C@@H](CCCCC)C(=O)N2CCC[C@H]2C(=O)N[C@@H](C(C)C)C(=O)N[C@@H](CO)C(=O)N[C@H](C(=O)NCC(=O)O)CSCC(=O)N[C@@H](Cc2ccc3ccccc3c2)C(=O)N[C@@H](Cc2ccc(O)cc2)C(=O)N[C@@H](CC(=O)O)C1=O [Ex 1291] ({CH2CO}-[2Nal]YD[NHexGly]YLGR[NMeNle][Ahp(2)]PVSCG-OH; thioether N-14) | 5.1
3 | CCCCCCN1CC(=O)N[C@@H](Cc2ccc(O)cc2)C(=O)N[C@@H](CC(C)C)C(=O)NCC(=O)N[C@@H](CCCNC(=N)N)C(=O)N[C@@H](Cc2ccc(O)cc2)C(=O)N[C@@H](CCCCC)C(=O)N2CCC[C@H]2C(=O)N[C@@H](C(C)C)C(=O)N[C@@H](CO)C(=O)N[C@H](C(=O)NCC(=O)O)CSCC(=O)N[C@@H](Cc2ccc3ccccc3c2)C(=O)N[C@@H](Cc2ccc(O)cc2)C(=O)N[C@@H](CC(=O)O)C1=O [Ex 1292] ({CH2CO}-[2Nal]YD[NHexGly]YLGRY[Ahp(2)]PVSCG-OH; thioether N-14) | 29.9
4 | CCCCCCN1CC(=O)N[C@@H](Cc2ccc(O)cc2)C(=O)N[C@@H](CC(C)C)C(=O)NCC(=O)N[C@@H](CCCNC(=N)N)C(=O)N[C@@H](CC(N)=O)C(=O)N[C@@H](CCCCC)C(=O)N2CCC[C@H]2C(=O)N[C@@H](C(C)C)C(=O)N[C@@H](CO)C(=O)N[C@H](C(=O)NCC(=O)O)CSCC(=O)N[C@@H](Cc2ccc3ccccc3c2)C(=O)N[C@@H](Cc2ccc(O)cc2)C(=O)N[C@@H](CC(=O)O)C1=O [Ex 1293] ({CH2CO}-[2Nal]YD[NHexGly]YLGRN[Ahp(2)]PVSCG-OH; thioether N-14) | 19.9
5 | CCCCCCN1CC(=O)N[C@@H](Cc2ccc(O)cc2)C(=O)N[C@@H](CC(C)C)C(=O)NCC(=O)N[C@@H](CCCNC(=N)N)C(=O)N(C)[C@@H](CCCC)C(=O)N[C@@H](CCCCC)C(=O)N2CCC[C@H]2C(=O)N[C@@H](C(C)C)C(=O)N[C@@H](CO)C(=O)N[C@H](C(=O)NCC(N)=O)CSCC(=O)N[C@@H](Cc2ccc3ccccc3c2)C(=O)N[C@@H](Cc2ccc(O)cc2)C(=O)N[C@@H](CC(=O)O)C1=O [Ex 1294] ({CH2CO}-[2Nal]YD[NHexGly]YLGR[NMeNle][Ahp(2)]PVSCG-NH2; thioether N-14) | 9.3
6 | CCCCCCN1CC(=O)N[C@@H](Cc2ccc(O)cc2)C(=O)N[C@@H](CC(C)C)C(=O)NCC(=O)N[C@@H](CCCNC(=N)N)C(=O)N[C@@H](CC(N)=O)C(=O)N[C@@H](CCCCC)C(=O)N2CCC[C@H]2C(=O)N[C@@H](C(C)C)C(=O)N[C@@H](CO)C(=O)N[C@H](C(=O)NCC(N)=O)CSCC(=O)N[C@@H](Cc2ccc3ccccc3c2)C(=O)N[C@@H](Cc2ccc(O)cc2)C(=O)N[C@@H](CC(=O)O)C1=O [Ex 1295] ({CH2CO}-[2Nal]YD[NHexGly]YLGRN[Ahp(2)]PVSCG-NH2; thioether N-14) | 31.4
7 | CCCCCCN1CC(=O)N[C@@H](Cc2ccc(O)cc2)C(=O)N[C@@H](CC(C)C)C(=O)NCC(=O)N[C@@H](CCCNC(=N)N)C(=O)N[C@@H](CCCCN)C(=O)N[C@@H](CCCCC)C(=O)N2CCC[C@H]2C(=O)N[C@@H](C(C)C)C(=O)N[C@@H](CO)C(=O)N[C@H](C(=O)NCC(=O)O)CSCC(=O)N[C@@H](Cc2ccc3ccccc3c2)C(=O)N[C@@H](Cc2ccc(O)cc2)C(=O)N[C@@H](CC(=O)O)C1=O [Ex 1296] ({CH2CO}-[2Nal]YD[NHexGly]YLGRK[Ahp(2)]PVSCG-OH; thioether N-14) | 17.3
8 | CCCCCCN1CC(=O)N[C@@H](Cc2ccc(O)cc2)C(=O)N[C@@H](CC(C)C)C(=O)NCC(=O)N[C@@H](CCCNC(=N)N)C(=O)N[C@@H](Cc2ccc(O)cc2)C(=O)N[C@@H](CCCCC)C(=O)N2CCC[C@H]2C(=O)N[C@@H](C(C)C)C(=O)N[C@@H](CO)C(=O)N[C@H](C(=O)NCC(N)=O)CSCC(=O)N[C@@H](Cc2ccc3ccccc3c2)C(=O)N[C@@H](Cc2ccc(O)cc2)C(=O)N[C@@H](CC(=O)O)C1=O [Ex 1297] ({CH2CO}-[2Nal]YD[NHexGly]YLGRY[Ahp(2)]PVSCG-NH2; thioether N-14) | 35.7
9 | CCCCCCN1CC(=O)N[C@@H](Cc2ccc(O)cc2)C(=O)N[C@@H](CC(C)C)C(=O)NCC(=O)N[C@@H](CCCNC(=N)N)C(=O)N[C@@H](Cc2ccc(O)cc2)C(=O)N[C@@H](CCCCC)C(=O)N2CCC[C@H]2C(=O)N[C@@H](C(C)C)C(=O)N[C@@H](CC(=O)O)C(=O)N[C@H](C(=O)NCC(N)=O)CSCC(=O)N[C@@H](Cc2ccc3ccccc3c2)C(=O)N[C@@H](Cc2ccc(O)cc2)C(=O)N[C@@H](CC(=O)O)C1=O [Ex 1298] ({CH2CO}-[2Nal]YD[NHexGly]YLGRY[Ahp(2)]PVDCG-NH2; thioether N-14) | 36.1
10 | CCCCCCN1CC(=O)N[C@@H](Cc2ccc(O)cc2)C(=O)N[C@@H](CC(C)C)C(=O)NCC(=O)N[C@@H](CCCNC(=N)N)C(=O)N[C@@H](Cc2ccc(O)cc2)C(=O)N[C@@H](CCCCC)C(=O)N2CCC[C@H]2C(=O)N[C@@H](C(C)C)C(=O)N[C@@H](C(C)C)C(=O)N[C@H](C(=O)NCC(=O)O)CSCC(=O)N[C@@H](Cc2ccc3ccccc3c2)C(=O)N[C@@H](Cc2ccc(O)cc2)C(=O)N[C@@H](CC(=O)O)C1=O [Ex 1299] ({CH2CO}-[2Nal]YD[NHexGly]YLGRY[Ahp(2)]PVVCG-OH; thioether N-14) | 33.2
11 | CCCCCCN1CC(=O)N[C@@H](Cc2ccc(O)cc2)C(=O)N[C@@H](CCCC)C(=O)N[C@@H](CC(N)=O)C(=O)N[C@@H](CCCNC(N)=O)C(=O)N[C@@H](CC(C)C)C(=O)N[C@@H](CCCCC)C(=O)N2CCC[C@H]2C(=O)N[C@@H](C(C)C)C(=O)N[C@@H](CC(=O)O)C(=O)N[C@H](C(=O)NCC(=O)O)CSCC(=O)N[C@@H](Cc2ccc3ccccc3c2)C(=O)N[C@@H](Cc2ccc(O)cc2)C(=O)N[C@@H](CC(=O)O)C1=O [Ex 1300] ({CH2CO}-[2Nal]YD[NHexGly]Y[Nle]N[Cit]L[Ahp(2)]PVDCG-OH; thioether N-14) | 4.9
12 | CCCCCCN1CC(=O)N[C@@H](Cc2ccc(O)cc2)C(=O)N[C@@H](CCCC)C(=O)N[C@@H](CC(N)=O)C(=O)N[C@@H](CCCNC(N)=O)C(=O)N(C)[C@@H](CCCC)C(=O)N[C@@H](CCCCC)C(=O)N2CCC[C@H]2C(=O)N[C@@H](C(C)C)C(=O)N[C@@H](CC(=O)O)C(=O)N[C@H](C(=O)NCC(=O)O)CSCC(=O)N[C@@H](Cc2ccc3ccccc3c2)C(=O)N[C@@H](Cc2ccc(O)cc2)C(=O)N[C@@H](CC(=O)O)C1=O [Ex 1301] ({CH2CO}-[2Nal]YD[NHexGly]Y[Nle]N[Cit][NMeNle][Ahp(2)]PVDCG-OH; thioether N-14) | 5.6
13 | CCCCCCN1CC(=O)N[C@@H](Cc2ccc(O)cc2)C(=O)N[C@@H](CCCCC)C(=O)NCC(=O)N[C@@H](CCCNC(N)=O)C(=O)N[C@@H](CC(C)C)C(=O)N[C@@H](CCCCC)C(=O)N2CCC[C@H]2C(=O)N[C@@H](C(C)C)C(=O)N[C@@H](CO)C(=O)N[C@H](C(=O)NCC(N)=O)CSCC(=O)N[C@@H](Cc2ccc3ccccc3c2)C(=O)N[C@@H](Cc2ccc(O)cc2)C(=O)N[C@@H](CC(=O)O)C1=O [Ex 1302] ({CH2CO}-[2Nal]YD[NHexGly]Y[Ahp(2)]G[Cit]L[Ahp(2)]PVSCG-NH2; thioether N-14) | 7.5
14 | CCCCCCN1CC(=O)N[C@@H](Cc2ccc(O)cc2)C(=O)N[C@@H](CCCC)C(=O)NCC(=O)N[C@@H](CCCNC(N)=O)C(=O)N[C@@H](CC(C)C)C(=O)N[C@@H](CCCCC)C(=O)N2CCC[C@H]2C(=O)N[C@@H](C(C)C)C(=O)N[C@@H](CC(=O)O)C(=O)N[C@H](C(=O)NCC(N)=O)CSCC(=O)N[C@@H](Cc2ccc3ccccc3c2)C(=O)N[C@@H](Cc2ccc(O)cc2)C(=O)N[C@@H](CC(=O)O)C1=O [Ex 1303] ({CH2CO}-[2Nal]YD[NHexGly]Y[Nle]G[Cit]L[Ahp(2)]PVDCG-NH2; thioether N-14) | 8.8
15 | CCCCCCN1CC(=O)N[C@@H](Cc2ccc(O)cc2)C(=O)N[C@@H](CCCC)C(=O)N[C@@H](CC(N)=O)C(=O)N[C@@H](CCCNC(=N)N)C(=O)N2Cc3ccccc3C[C@H]2C(=O)N[C@@H](CCCCC)C(=O)N2CCC[C@H]2C(=O)N[C@@H](C(C)C)C(=O)N[C@@H](CO)C(=O)N[C@H](C(=O)NCC(N)=O)CSCC(=O)N[C@@H](Cc2ccc3ccccc3c2)C(=O)N[C@@H](Cc2ccc(O)cc2)C(=O)N[C@@H](CC(=O)O)C1=O [Ex 1304] ({CH2CO}-[2Nal]YD[NHexGly]Y[Nle]NR[Tic][Ahp(2)]PVSCG-NH2; thioether N-14) | 31.5
16 | CCCCCCN1CC(=O)N[C@@H](Cc2ccc(O)cc2)C(=O)N[C@@H](CCCC)C(=O)N[C@@H](CC(N)=O)C(=O)N[C@@H](CCCNC(N)=O)C(=O)N2Cc3ccccc3C[C@H]2C(=O)N[C@@H](CCCCC)C(=O)N2CCC[C@H]2C(=O)N[C@@H](C(C)C)C(=O)N[C@@H](CC(=O)O)C(=O)N[C@H](C(=O)NCC(N)=O)CSCC(=O)N[C@@H](Cc2ccc3ccccc3c2)C(=O)N[C@@H](Cc2ccc(O)cc2)C(=O)N[C@@H](CC(=O)O)C1=O [Ex 1305] ({CH2CO}-[2Nal]YD[NHexGly]Y[Nle]N[Cit][Tic][Ahp(2)]PVDCG-NH2; thioether N-14) | 10.3
